From patent US20120283327A1, “PHARMACEUTICAL COMPOSITIONS AND THERAPEUTIC APPLICATIONS OF A HYDROCORTISONE DERIVATIVE DESIGNATED AS DEINA” (priority 2009, published 2012)

Assays:
[1] = test system: bioptic animal samples (skin, chondrocyte, mucosal and follicular vitality); test: Optical microscopy of cultured biopsies: cytokeratin 10 and 11 expression and haematoxylin/eosin histology; type: cell-based
Method: The bioptic animal samples in the investigation comprised biopsies of: • chronic atrophic cutaneous lesions due to venous stasis (base and margins), • damaged joint cartilage (chronic degenerative osteo-articular arthritis), • terminal cicatricial scalp (post-traumatic or surgical lesions), • hyperkeratosis of the oral cavity (vitamin B deficiency).
All the samples were washed three times with physiological saline and antibiotics (100 units/ml of penicillin+100 μg/ml of streptomycin+160 mg/L gentamycin, fluconazole 0.2 mg/ml) for 10 minutes at ambient temperature.
The biopsies were then sectioned into three parts (two controls, 1 and 2, and one sample, 3, to be treated for each patient) and suspended in a final volume of 25 ml of the corresponding culture solutions within 10 cm slides (Lab-Tek chamber slides, Nunc, Kamstrup, Denmark).
Two types of controls were prepared, an untreated negative control (1), that is one treated with physiological saline and antibiotics only (as described above), and a positive control (2) treated with media for ordinary cell culture for skin biopsies.
2. Positive control: Controlled bioptic specimens 2 were placed between 10 cm slides (Lab-Tek chamber slides, Nunc, Kamstrup, Denmark) in D-MEM medium supplemented with:
3. Samples-1 and -2. Bioptic samples 1 and 2 were placed between 10 cm slides (Lab-Tek chamber slides, Nunc, Kamstrup, Denmark) in medium in a solution of Deina® culture medium (double test). […]
Results relating to the expression of cytokeratin 10 and 11 and histological staining of the bioptic preparations with haematoxylin/eosin (used to display skin, chondrocyte, mucosal and follicular vitality) are shown in Table 6 (CONTROLS) and Table 7 (SAMPLES), and have been expressed using a qualitative and semi-quantitative scale. […]
Samples belonging to the type of the Sample treatment group (Deina®). Median semi-quantitative values for incubation days 7 and 60.

[2] = test system: bilateral joint changes; type: in vivo
Method: A clinical trial to evaluate tolerance and efficacy for the compound known as infusional Deina® (composition shown in Table 3) was also performed on a compassionate basis.
Twenty cases (dogs of different breed, size, body weight, sex and age).
The quantity of solution inoculated was equal to the quantity of synovial fluid aspirated and analysed.
a. Time Zero • Collection of case history and clinical examination comprising full blood counts, including LACTATES to check metabolic oxidation, • Radiography of the limb in question, • ROM (Range Of Motion), • Exploratory arthroscopy, • Exclusion of any intra-articular curettage, • Arthrocentesis with removal and morphological/cytological and biochemical examination of the synovial fluid, • Histological examination of a sample of joint cartilage, • Intra-articular inoculation of the solutions tested equal to the quantity of synovial fluid withdrawn and always in the same way (bilateral lesions): of Deina®.
A synovial examination and intra-articular injection of the solution was repeated weekly or for four/eight times, depending on the severity of the initial pathological condition.
b. End of the Treatment Cycle • Arthrocentesis with removal and morphological/cytological and biochemical examination of the synovial fluid, • Histological examination of a sample of joint cartilage, • Radiography of the joint in question, • ROM (Range Of Motion), • Blood lactic acid content, • Clinical examination and recording.

[3] = Deina infusional formulation, intra-articular, weekly four/eight times, 20 dogs

In the case of `CC1(CCC(=O)O)C(=O)CCC2C1C(O)CC1(C)C2CCC1(O)C(=O)CO` (stereo not drawn) [Deina®, 3-[3,5-Dihydroxy-3-(2-hydroxy-acetyl)-3a,6-dimethyl-7-oxo-dodecahydro-cyclo-penta[alpha]naphthalen-6-yl]-propionic acid], the “cytokeratin 10 and 11 (typical of normal tegument and scalp tissues with vital follicles)” value ([1]; optical microscopy, Table 7 summary) is reported as “net predominance”, the “number of cells (staining with eosin and haematoxylin)” value ([1]; samples treated for two months, versus controls) is reported as “net increase” and the “histological state of the cultured tissue” value ([1]; short term (7 days) up to two months of culture) is reported as “trophic, vital and active”. The “cases in which pain and palpation fell” value [2, 3] was 100%, the “cases with clinical improvement” value [2, 3] was 70% and the “cases with increased ROM (Range of Motion)” value [2, 3] was 90%. For the same compound, the tolerance ([2]; dog, in vivo) was “optimum tolerance”.
